{
  "source": "patent US5807868A",
  "about": "“Isoquinoline derivatives as therapeutic agents” (Knoll Aktiengesellschaft, priority 1993, dated 1998)",
  "key": {"D1 dopamine receptors": {"target": "D1 dopamine receptors (Rattus norvegicus, UniProt P18901)", "sequence (P18901 whole entry)": "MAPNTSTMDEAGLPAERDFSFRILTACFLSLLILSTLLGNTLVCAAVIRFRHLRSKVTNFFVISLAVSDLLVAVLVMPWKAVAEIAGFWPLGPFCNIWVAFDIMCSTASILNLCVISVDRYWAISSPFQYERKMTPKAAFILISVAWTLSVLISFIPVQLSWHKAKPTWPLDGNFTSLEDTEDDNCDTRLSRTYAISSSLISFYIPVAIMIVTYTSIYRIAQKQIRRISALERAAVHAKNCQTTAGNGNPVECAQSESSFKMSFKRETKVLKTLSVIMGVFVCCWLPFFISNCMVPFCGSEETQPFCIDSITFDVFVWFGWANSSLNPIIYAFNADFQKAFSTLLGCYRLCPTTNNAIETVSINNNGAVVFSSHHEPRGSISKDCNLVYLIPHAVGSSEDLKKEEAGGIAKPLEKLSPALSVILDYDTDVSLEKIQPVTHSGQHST", "experiment": "Inhibition of tritiated SCH 23390 binding to D1 dopamine receptors, rat striatal samples", "set-up": "species or system rat (male Charles River CD rats)", "conditions": "for pKi: rat striatum, tritiated SCH 23390, pH 7.4, 37° C., 30 minutes; for Ki for D2 / Ki for D1: ratio between the D2 and D1 Ki values, to two significant figures", "description": "(§1) Striatal samples from the brains of male Charles River CD rats weighing between 140-250 g were homogenised in ice-cold 50 mM Tris-HCl buffer (pH 7.4 when measured at 25° C. for D1 binding assays and pH 7.7 when measured at 25° C. for D2 binding assays) and centrifuged for 10 minutes (at 21,000 g when used for D1 binding assay and 40,000 g when used for D2 binding assays). The pellet was resuspended in the same buffer, again centrifuged and the final pellet stored at -80° C. Before each test the pellet was resuspended in 50 mM Tris-HCl buffer containing 120 mM NaCl, 5 mM KCl, 2 mM CaCl2 and 1 mM MgCl2 at pH 7.4 for the D1 binding assays and at pH 7.7 with the addition of 6 mM ascorbic acid for the D2 binding assays. Aliquots of this suspension were then added to tubes containing the ligand and either the compound under test or buffer. For the D1 binding assays the ligand was tritiated SCH 23390 and the mixture was incubated at 37° C. for 30 minutes before the incubation was terminated by rapid filtration. For the D2 binding assays the ligand was tritiated (S)-sulpiride and the mixture was incubated at 4° C. for 40 minutes before the incubation was terminated by rapid filtration. Non-specific binding was determined experimentally by the addition of saturating concentrations of chloropromazine or spiroperidol for D1 and D2 receptors respectively.\n(§2) The filters were washed with ice-cold Tris-HCl buffer and dried. The filters were punched out into vials containing scintillation fluid and were left for about 20 hours before being counted by scintillation spectrophotometry. Competition binding curves were produced over a range of concentrations of the compound under test and the inhibition coefficient Ki was derived from the data by use of the non-linear curve fitting computer programe EBDA (Biosoft)."}, "D2 dopamine receptors": {"target": "D2 dopamine receptors (Rattus norvegicus, UniProt P61169)", "sequence (P61169 whole entry)": "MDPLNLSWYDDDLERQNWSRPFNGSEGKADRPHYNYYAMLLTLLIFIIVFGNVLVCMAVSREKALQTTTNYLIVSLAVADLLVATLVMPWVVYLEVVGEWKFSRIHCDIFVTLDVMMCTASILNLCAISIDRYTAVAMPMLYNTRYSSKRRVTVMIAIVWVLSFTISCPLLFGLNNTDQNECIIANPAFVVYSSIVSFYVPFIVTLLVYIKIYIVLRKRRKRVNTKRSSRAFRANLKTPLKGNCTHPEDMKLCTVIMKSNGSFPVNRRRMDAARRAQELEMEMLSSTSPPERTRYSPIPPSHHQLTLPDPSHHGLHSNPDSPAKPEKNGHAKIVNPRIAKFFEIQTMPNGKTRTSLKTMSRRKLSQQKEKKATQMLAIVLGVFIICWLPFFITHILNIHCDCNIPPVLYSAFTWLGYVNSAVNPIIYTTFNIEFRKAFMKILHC", "experiment": "Inhibition of tritiated (S)-sulpiride binding to D2 dopamine receptors, rat striatal samples", "set-up": "species or system rat (male Charles River CD rats)", "conditions": "rat striatum, pH 7.7, 4° C., 40 minutes", "description": "as §1, §2"}},
  "note": "pKi: −log10 of the molar value. Counter-ions that a name gives are not always drawn.",
  "data": [
    {"smiles": "Br.CC(C)CC1(C2c3cc(O)ccc3CCN2C)CCC1", "note": "(stereo not drawn) [Example 1, 7-hydroxy-2-methyl-1-[1-(2-methylpropyl)cyclobutyl]-1,2,3,4-tetrahydroisoquinoline hydrobromide]", "values": [
      {"measurement": "pKi", "setting": "D1 dopamine receptors", "result": 6.43},
      {"measurement": "Ki for D2 / Ki for D1", "setting": "D1 dopamine receptors", "result": 68},
      {"measurement": "pKi", "setting": "D2 dopamine receptors", "result": 4.60}
    ]},
    {"smiles": "Br.Cc1cc2c(cc1O)C(C1(c3cccs3)CC1)N(C)CC2", "note": "(stereo not drawn) [Example 5, 7-hydroxy-2,6-dimethyl-1-[1-(2-thienyl)cyclopropyl]-1,2,3,4-tetrahydroisoquinoline hydrobromide]", "values": [
      {"measurement": "pKi", "setting": "D1 dopamine receptors", "result": 7.49},
      {"measurement": "Ki for D2 / Ki for D1", "setting": "D1 dopamine receptors", "result": 94},
      {"measurement": "pKi", "setting": "D2 dopamine receptors", "result": 5.52}
    ]},
    {"smiles": "Cc1cc2c(cc1O)C(C1(c3ccccn3)CC1)N(C)CC2", "note": "(stereo not drawn) [Example 11, 7-hydroxy-2,6-dimethyl-1-[1-(2-pyridyl)cyclopropyl]-1,2,3,4-tetrahydroisoquinoline]", "values": [
      {"measurement": "pKi", "setting": "D1 dopamine receptors", "result": 6.85},
      {"measurement": "Ki for D2 / Ki for D1", "setting": "D1 dopamine receptors", "result": 79},
      {"measurement": "pKi", "setting": "D2 dopamine receptors", "result": 5.96}
    ]},
    {"smiles": "Br.Cc1cc2c(cc1O)C(C1(c3ccsc3)CC1)N(C)CC2", "note": "(racemic) [Example 8, (±)-7-hydroxy-2,6-dimethyl-1-[1-(3-thienyl)cyclopropyl]-1,2,3,4-tetrahydroisoquinoline hydrobromide]", "values": [
      {"measurement": "pKi", "setting": "D1 dopamine receptors", "result": 8.23},
      {"measurement": "Ki for D2 / Ki for D1", "setting": "D1 dopamine receptors", "result": 220},
      {"measurement": "pKi", "setting": "D2 dopamine receptors", "result": 5.89}
    ]},
    {"smiles": "Cc1cc2c(cc1O)C(C1(CC3CCCC3)CC1)N(C)CC2", "note": "(stereo not drawn) [Example 2, 1-[1-(cyclopentylmethyl)cyclopropyl]-7-hydroxy-2,6-dimethyl-1,2,3,4-tetrahydroisoquinoline]", "values": [
      {"measurement": "pKi", "setting": "D1 dopamine receptors", "result": 8.10},
      {"measurement": "Ki for D2 / Ki for D1", "setting": "D1 dopamine receptors", "result": 290},
      {"measurement": "pKi", "setting": "D2 dopamine receptors", "result": 5.64}
    ]},
    {"smiles": "Cc1cc2c(cc1O)C(C1(C3C=CCCC3)CCC1)N(C)CC2.O=C(O)C(=O)O", "note": "(stereo not drawn) [Example 3, 1-[1-(cyclohex-1-en-3-yl)cyclobutyl]-7-hydroxy-2,6-dimethyl-1,2,3,4-tetrahydroisoquinoline oxalate]", "values": [
      {"measurement": "pKi", "setting": "D1 dopamine receptors", "result": 7.11},
      {"measurement": "Ki for D2 / Ki for D1", "setting": "D1 dopamine receptors", "result": 120},
      {"measurement": "pKi", "setting": "D2 dopamine receptors", "result": 5.02}
    ]},
    {"smiles": "Cc1cc2c(cc1O)C(C1(c3ccco3)CC1)N(C)CC2.O=C(O)/C=C\\C(=O)O", "note": "(stereo not drawn) [Example 9, 1-[1-(2-furyl)cyclopropyl]-7-hydroxy-2,6-dimethyl-1,2,3,4-tetrahydroisoquinoline maleate]", "values": [
      {"measurement": "pKi", "setting": "D1 dopamine receptors", "result": 7.40},
      {"measurement": "Ki for D2 / Ki for D1", "setting": "D1 dopamine receptors", "result": 220},
      {"measurement": "pKi", "setting": "D2 dopamine receptors", "result": 5.05}
    ]},
    {"smiles": "Cc1cc2c(cc1O)C(C1(c3ccsc3)CC1)N(C)CC2.O=C(O)C(=O)O", "note": "(single isomer, unassigned; (-)) [Example 6, (-)-7-hydroxy-2,6-dimethyl-1-[1-(3-thienyl)cyclopropyl]-1,2,3,4-tetrahydroisoquinoline oxalate]", "values": [
      {"measurement": "pKi", "setting": "D1 dopamine receptors", "result": 8.68},
      {"measurement": "Ki for D2 / Ki for D1", "setting": "D1 dopamine receptors", "result": 2300},
      {"measurement": "pKi", "setting": "D2 dopamine receptors", "result": 5.31}
    ]},
    {"smiles": "CN1CCc2ccc(O)cc2C1C1(c2ccccn2)CCC1.O=C(O)C(=O)O", "note": "(stereo not drawn) [Example 10, 7-hydroxy-2-methyl-1-[1-(2-pyridyl)cyclobutyl]-1,2,3,4-tetrahydroisoquinoline oxalate]", "values": [
      {"measurement": "pKi", "setting": "D1 dopamine receptors", "result": 6.80},
      {"measurement": "Ki for D2 / Ki for D1", "setting": "D1 dopamine receptors", "result": 44},
      {"measurement": "pKi", "setting": "D2 dopamine receptors", "result": 5.15}
    ]},
    {"smiles": "Cc1cc2c(cc1O)C(C1(C3CCCc4ccccc43)CC1)N(C)CC2", "note": "(stereo not drawn) [Example 4, 7-hydroxy-2,6-dimethyl-1-[1-(1,2,3,4-tetrahydronaphth-1-yl)cyclopropyl]-1,2,3,4-tetrahydroisoquinoline 1.05 hydrochloride 0.7 hydrate]", "values": [
      {"measurement": "pKi", "setting": "D1 dopamine receptors", "result": 8.17},
      {"measurement": "Ki for D2 / Ki for D1", "setting": "D1 dopamine receptors", "result": 28},
      {"measurement": "pKi", "setting": "D2 dopamine receptors", "result": 6.72}
    ]},
    {"smiles": "Cc1cc2c(cc1O)C(C1(c3ccsc3)CC1)N(C)CC2", "note": "(single isomer, unassigned; (-)) [Example 7, (-)-7-hydroxy-2,6-dimethyl-1-[1-(3-thienyl)cyclopropyl]-1,2,3,4-tetrahydroisoquinoline hydrochloride 0.8 hydrate]", "values": [
      {"measurement": "pKi", "setting": "D1 dopamine receptors", "result": 8.38},
      {"measurement": "Ki for D2 / Ki for D1", "setting": "D1 dopamine receptors", "result": 2000},
      {"measurement": "pKi", "setting": "D2 dopamine receptors", "result": 5.07}
    ]}
  ]
}
